We go through nine molecules from PubChem BioAssay (NCI).

Test systems include RXF 393 renal; DU-145 prostate; ACHN renal; SK-MEL-28 melanoma; SK-OV-3 ovarian; NCI-H23 lung; MDA-MB-435; UACC-257 melanoma.
Holding throughout (test): inhibition of tumour cell growth, NCI panel, 48 h

The structures appear in SMILES notation.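 Where inhibition never reached the appropriate level, the endpoint shown equals the highest concentration tested. Otherwise, values were interpolated linearly from a five-concentration, 48-hour dose response in 96-well plates. The concentration for 50% growth inhibition is given as GI50. TGI denotes the concentration required for complete inhibition of growth.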 A value given as a limit tells only on which side of the number the result lay.

`Cn1c(=O)c(Oc2ccc(F)cc2F)cc2cnc(NC3CCOCC3)nc21`: the GI50 with RXF 393 renal is 24.3 µM; in the assay with DU-145 prostate it was greater than 25 µM; with ACHN renal, greater than 25 µM; in the assay on SK-MEL-28 melanoma, greater than 25 µM; with SK-OV-3 ovarian, greater than 25 µM; in the assay on NCI-H23 lung, greater than 25 µM. The GI50 in the assay on MDA-MB-435 and in the assay with UACC-257 melanoma was greater than 25 µM in each case. Moreover, the TGI in the assay with RXF 393 renal, in the assay on DU-145 prostate, in the assay with ACHN renal, with SK-MEL-28 melanoma, with SK-OV-3 ovarian and in the assay with NCI-H23 lung was greater than 25 µM throughout. Besides, the TGI in the assay on MDA-MB-435 and with UACC-257 melanoma was greater than 25 µM throughout.

On to `CC(=O)N[C@@H](Cc1ccc(OP(=O)(O)O)cc1)C(=O)N[C@H]1CCC(=O)N2CCC[C@@H](C(=O)NCc3ccccc3)N2C1=O`, for which the GI50 with RXF 393 renal, in the assay on DU-145 prostate, with ACHN renal, with SK-MEL-28 melanoma, in the assay on SK-OV-3 ovarian and in the assay with NCI-H23 lung was greater than 25 µM throughout. The GI50 in the assay on MDA-MB-435 and in the assay with UACC-257 melanoma was greater than 25 µM in each case. Further, the TGI in the assay with RXF 393 renal, in the assay on DU-145 prostate, in the assay on ACHN renal, in the assay on SK-MEL-28 melanoma, with SK-OV-3 ovarian and with NCI-H23 lung was greater than 25 µM throughout. Moreover, the TGI with MDA-MB-435 and in the assay with UACC-257 melanoma was greater than 25 µM each time.

With `COc1cc(C2CC(=O)Nc3c2c(C)nn3-c2nc3ccccc3[nH]2)cc(OC)c1O` (centres undefined), the GI50 in the assay with RXF 393 renal was 2.17 µM; in the assay on DU-145 prostate, 4.98 µM; with ACHN renal, 3.11 µM; in the assay with SK-MEL-28 melanoma, 2.4 µM; in the assay with SK-OV-3 ovarian, 2.7 µM; with NCI-H23 lung, 3.15 µM. Besides, the GI50 with MDA-MB-435 was 1.98 µM; in the assay on UACC-257 melanoma, 2.98 µM. For the same molecule, the TGI in the assay with RXF 393 renal was 5.14 µM; in the assay with DU-145 prostate, 40.3 µM; in the assay on ACHN renal, greater than 28.6 µM; with SK-MEL-28 melanoma, 6.58 µM; with SK-OV-3 ovarian, 5.9 µM; in the assay on NCI-H23 lung it was 11.2 µM. Further, the TGI with MDA-MB-435 was 4.42 µM; with UACC-257 melanoma it was greater than 24.5 µM.

As for `NC(N)=Nc1ccc(/C=C2\C=Cc3ccccc32)cc1`, the GI50 with RXF 393 renal was 2.14 µM; in the assay with DU-145 prostate it was 2.36 µM; in the assay on ACHN renal, 1.91 µM; in the assay with SK-MEL-28 melanoma, 4.38 µM; in the assay on SK-OV-3 ovarian, 6.14 µM; in the assay with NCI-H23 lung, 2.95 µM. The results for the GI50 in the assay on MDA-MB-435 and with UACC-257 melanoma were 1.84 µM and 4.99 µM, respectively. Also, the TGI in the assay with RXF 393 renal came out at 5.52 µM; in the assay on DU-145 prostate, 5.03 µM; in the assay with ACHN renal, 3.56 µM; in the assay on SK-MEL-28 melanoma, 17.9 µM; with SK-OV-3 ovarian it was 22.9 µM; in the assay with NCI-H23 lung it was 10.4 µM. Further, the TGI was 3.92 µM in the assay with MDA-MB-435 and 18.3 µM in the assay on UACC-257 melanoma.

Consider `C=CCOC(=O)Nc1cccn([C@H](CC(C)C)C(=O)NCCC(C)C)c1=O`, for which the GI50 in the assay with RXF 393 renal was greater than 100 µM; in the assay with DU-145 prostate, greater than 100 µM; with ACHN renal, greater than 100 µM; in the assay on SK-MEL-28 melanoma, greater than 100 µM; in the assay with SK-OV-3 ovarian it was greater than 100 µM; with NCI-H23 lung, 57.2 µM. Besides, the GI50 is greater than 100 µM with MDA-MB-435 and 66.5 µM in the assay with UACC-257 melanoma. In addition, the TGI in the assay with RXF 393 renal, in the assay on DU-145 prostate, with ACHN renal, with SK-MEL-28 melanoma, with SK-OV-3 ovarian and with NCI-H23 lung was greater than 100 µM in each case. The TGI with MDA-MB-435 and in the assay on UACC-257 melanoma was greater than 100 µM in each case.

Regarding `Cc1ccsc1-c1ccc2c(c1)COC2(CCCN(C)C)c1ccc(F)cc1` (centres undefined), the GI50 is 2.76 µM in the assay with RXF 393 renal; 3.17 µM with DU-145 prostate; 3.48 µM in the assay on ACHN renal; 1.76 µM in the assay with SK-MEL-28 melanoma; 8.16 µM with SK-OV-3 ovarian; 5.39 µM with NCI-H23 lung. Also, the GI50 in the assay on MDA-MB-435 is 1.68 µM; in the assay on UACC-257 melanoma, 1.94 µM. The TGI was 9.44 µM in the assay on RXF 393 renal; 10.8 µM in the assay with DU-145 prostate; 13.3 µM in the assay on ACHN renal; 3.33 µM in the assay with SK-MEL-28 melanoma; 21.9 µM in the assay with SK-OV-3 ovarian; 18.1 µM in the assay with NCI-H23 lung. Further, the results for the TGI in the assay on MDA-MB-435 and with UACC-257 melanoma were 3.24 µM and 3.98 µM, respectively.

`Cc1cccc(Cl)c1NC(=O)c1cnc(Nc2cc(N3CCOCC3)cc(S(C)(=O)=O)c2)s1`: the GI50 with RXF 393 renal is 0.103 µM; in the assay on DU-145 prostate, 1.2 µM; in the assay on ACHN renal it was 0.364 µM; in the assay with SK-MEL-28 melanoma it was greater than 5.14 µM; in the assay on SK-OV-3 ovarian it was 0.191 µM; with NCI-H23 lung, greater than 10 µM. Besides, the GI50 in the assay on MDA-MB-435 is greater than 9.63 µM; in the assay with UACC-257 melanoma, greater than 4.82 µM. The TGI was 0.994 µM with RXF 393 renal; 5.14 µM in the assay on DU-145 prostate; greater than 7.11 µM with ACHN renal; greater than 10 µM in the assay with SK-MEL-28 melanoma; greater than 8.3 µM in the assay with SK-OV-3 ovarian; greater than 10 µM in the assay on NCI-H23 lung. In addition, the TGI in the assay on MDA-MB-435 and with UACC-257 melanoma was greater than 10 µM throughout.

On to `COc1ccc(-c2cn(-c3cc(OC)c(OC)c(OC)c3)c(=O)[nH]2)cc1OC`, for which the GI50 in the assay on RXF 393 renal, in the assay on DU-145 prostate, in the assay with ACHN renal, with SK-MEL-28 melanoma, with SK-OV-3 ovarian and with NCI-H23 lung was greater than 100 µM in each case. Besides, the GI50 with MDA-MB-435 and in the assay with UACC-257 melanoma was greater than 100 µM throughout. For the same molecule, the TGI in the assay on RXF 393 renal, in the assay with DU-145 prostate, in the assay with ACHN renal, in the assay on SK-MEL-28 melanoma, with SK-OV-3 ovarian and in the assay on NCI-H23 lung was greater than 100 µM in each case. Also, the TGI in the assay with MDA-MB-435 and in the assay with UACC-257 melanoma was greater than 100 µM each time.

Take `Nc1ncn([C@H]2C[C@H](OP(=O)(O)OC[C@H]3O[C@@H](n4cnc5c(=O)[nH]c(N)nc54)C[C@@H]3O)[C@@H](CO)O2)c(=O)n1`: the GI50 is 12.2 µM with RXF 393 renal; greater than 100 µM in the assay with DU-145 prostate; 38.4 µM in the assay on ACHN renal; greater than 100 µM with SK-MEL-28 melanoma; greater than 100 µM in the assay with SK-OV-3 ovarian; greater than 100 µM in the assay on NCI-H23 lung. Besides, the GI50 in the assay with MDA-MB-435 and in the assay on UACC-257 melanoma was greater than 100 µM each time. Moreover, the TGI in the assay with RXF 393 renal, in the assay on DU-145 prostate, in the assay with ACHN renal, with SK-MEL-28 melanoma, in the assay on SK-OV-3 ovarian and in the assay with NCI-H23 lung was greater than 100 µM in each case. Further, the TGI with MDA-MB-435 and with UACC-257 melanoma was greater than 100 µM throughout.
